24 compounds from US8168651B2, “Protein kinase modulators” (Cylene Pharmaceuticals, Inc., priority 2008, dated 2012) can be followed below.

Data set [1] deals with FLT3 autophos (Homo sapiens (Human), UniProt P36888). Description: FLT3 autophos IC50 (Table 46). It counts as cell-based.
Data set [2] concerns MiaPaca human pancreatic carcinoma cells. Description: Cell-proliferation assay using Alamar Blue dye. It counts as cell-based. The note with it: MIA PaCa-2. In short, it runs like this:
(§1)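 Antiproliferative read-out by Alamar Blue fluorescence (544/590 nm) after a 4-h dye incubation, following 4 days of compound treatment at 37 °C, 5% CO2. Pancreatic MiaPaca, colorectal HCT-116 and prostate PC-3 cells plated at 4,000-5,000 per well.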

For data set [3], the system named is PC-3 human prostatic cancer cells. Description: Cell-proliferation assay using Alamar Blue dye. It counts as cell-based. The note with it: read-out: PC3 IC50. The essentials:
as §1
On the technique in general: Alamar Blue is a resazurin reagent that responds to reducing activity.

The test system of data set [4] is K-562. Put plainly: K-562 IC50 (Table 46). It counts as cell-based. The note with it: Homo sapiens, K562.
The test system of data set [5] is MV-411. Description: MV-411 IC50 (Table 46). It counts as cell-based. The note with it: Homo sapiens, MV4-11.
For data set [6], the target named is recombinant human PIM1 (Homo sapiens (Human), UniProt P11309). Description: PIM-1 kinase activity in cell-free in vitro assay. The class given is biochemical.
Data set [7] deals with phospho-BAD ser112. Description: phospho-BAD ser112 IC50 (Table 46). It counts as cell-based.
The subject of data set [8] is MDA MB231. Description: MDA MB231 IC50 (Table 46). It counts as cell-based. The note with it: Homo sapiens, MDA-MB-231.
Data set [9] is described as follows: Pharmacokinetics after IV and PO dose in ICR mice. The class given is in vivo. Conditions: for half-life: mouse, plasma. The protocol: […] Blood samples were collected at predetermined times and the plasma separated. Plasma was separated from the blood samples collected at 5, 15 and 30 minutes and 1, 2, 4, 8 and 24 hours post-dose.
Drug levels were quantified by the LC/MS/MS method described below. Noncompartmental pharmacokinetic analysis was applied for intravenous administration. A linear trapezoidal rule was used to compute AUC(0-24). The terminal t1/2 and C0 were calculated using the last three and the first three data points, respectively
Bioanalysis was performed using a Quattro Micro LC/MS/MS instrument in the MRM detection mode, with an internal standard (IS). Briefly, 15 µL plasma samples were prepared for analysis using protein precipitation with 120 μL of acetonitrile. The supernatants were transferred into a 96 well plate and subjected to LC-MS/MS analysis using a Phenomenex Polar-RP HPLC column. The mobile phases were 10 mM NH4HCO3 in water (Solution-A) and 10 mM NH4HCO3 in methanol (Solution-B). […] Quantitation of the analytes was performed in the batch mode with two bracketing calibration curves according to the bioanalytical sample list.

Data set [10] concerns the target PARP-HSA enzyme (Homo sapiens (Human), UniProt P09874). Put plainly: PARP assay (chemiluminescent PARP assay kit, Trevigen). It counts as biochemical. Conditions: for IC50: read-out: PARP Inhibition IC50. The protocol: Modulatory activity of compounds described herein was assessed in vitro in cell-free CK2 assays. Modulatory activity of compounds described herein also are assessed in vitro in cell-free PARP assays. These assays are described hereafter.
PARP assays are conducted using a chemiluminescent PARP assay kit (Trevigen). Briefly, reactions are performed in Histone-coated strip wells, by adding 10 microliters test compound dissolved in 1×PARP Buffer (prepared by mixing 20×PARP buffer diluted with high-purity water) and 15 microliters diluted PARP-HSA enzyme (diluted in 1×PARP buffer, 0.1 unit per well) to 25 microliters PARP cocktail (prepared from 10×PARP cocktail and 10× activated DNA, both 2.5 microliters per well and 20 microliters per well of 1×PARP buffer). The reactions are incubated at ambient temperature for 60 minutes, then the liquid was removed. After washing the wells four times with PBS (200 ul), 50 microliters of STREP-HRP (Horseradish Peroxidase) solution (diluted 500-fold in 1× Strep-Diluent) was added and the reactions were allowed to incubate for 30 minutes at ambient temperature. The liquid was removed and, after washing the wells four times with PBS (200 ul), 50 microliters each of PeroxyGlo A and B (Chemiluminescent Horseradish Peroxidase substrates) are added and the resulting chemiluminescence quantified on the SpectraMax M5 plate reader.

Data set [11] concerns the target recombinant human CK2 (Homo sapiens (Human), UniProt P68400). Put plainly: CK2 assay (cell-free, 33P-ATP filter plate). The class given is biochemical. Conditions: for inhibition at 5 µM: read-out: CK2 Inhibition; for inhibition at 10 µM: read-out: CK2 % inhib @ 10 uM.

Sequence of recombinant human CK2 (P68400 whole entry): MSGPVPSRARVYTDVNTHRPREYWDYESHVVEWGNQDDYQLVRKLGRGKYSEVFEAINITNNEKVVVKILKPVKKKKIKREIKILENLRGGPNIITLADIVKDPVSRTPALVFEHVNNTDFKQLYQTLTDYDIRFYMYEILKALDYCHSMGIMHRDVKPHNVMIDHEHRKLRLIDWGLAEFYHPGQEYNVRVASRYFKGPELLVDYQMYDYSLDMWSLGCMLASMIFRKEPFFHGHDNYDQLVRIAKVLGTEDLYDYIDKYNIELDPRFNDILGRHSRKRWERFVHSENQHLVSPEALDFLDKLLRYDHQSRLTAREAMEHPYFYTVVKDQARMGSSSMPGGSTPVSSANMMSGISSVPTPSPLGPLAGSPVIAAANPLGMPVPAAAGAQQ
Sequence of recombinant human CK2 (P67870 whole entry partner): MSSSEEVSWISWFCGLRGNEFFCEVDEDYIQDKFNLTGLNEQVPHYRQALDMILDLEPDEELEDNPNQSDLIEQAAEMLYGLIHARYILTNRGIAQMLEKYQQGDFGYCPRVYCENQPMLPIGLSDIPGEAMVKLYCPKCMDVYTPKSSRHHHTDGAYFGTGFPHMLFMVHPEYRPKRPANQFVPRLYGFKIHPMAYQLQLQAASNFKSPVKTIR
Sequence of FLT3 autophos (P36888 27-993): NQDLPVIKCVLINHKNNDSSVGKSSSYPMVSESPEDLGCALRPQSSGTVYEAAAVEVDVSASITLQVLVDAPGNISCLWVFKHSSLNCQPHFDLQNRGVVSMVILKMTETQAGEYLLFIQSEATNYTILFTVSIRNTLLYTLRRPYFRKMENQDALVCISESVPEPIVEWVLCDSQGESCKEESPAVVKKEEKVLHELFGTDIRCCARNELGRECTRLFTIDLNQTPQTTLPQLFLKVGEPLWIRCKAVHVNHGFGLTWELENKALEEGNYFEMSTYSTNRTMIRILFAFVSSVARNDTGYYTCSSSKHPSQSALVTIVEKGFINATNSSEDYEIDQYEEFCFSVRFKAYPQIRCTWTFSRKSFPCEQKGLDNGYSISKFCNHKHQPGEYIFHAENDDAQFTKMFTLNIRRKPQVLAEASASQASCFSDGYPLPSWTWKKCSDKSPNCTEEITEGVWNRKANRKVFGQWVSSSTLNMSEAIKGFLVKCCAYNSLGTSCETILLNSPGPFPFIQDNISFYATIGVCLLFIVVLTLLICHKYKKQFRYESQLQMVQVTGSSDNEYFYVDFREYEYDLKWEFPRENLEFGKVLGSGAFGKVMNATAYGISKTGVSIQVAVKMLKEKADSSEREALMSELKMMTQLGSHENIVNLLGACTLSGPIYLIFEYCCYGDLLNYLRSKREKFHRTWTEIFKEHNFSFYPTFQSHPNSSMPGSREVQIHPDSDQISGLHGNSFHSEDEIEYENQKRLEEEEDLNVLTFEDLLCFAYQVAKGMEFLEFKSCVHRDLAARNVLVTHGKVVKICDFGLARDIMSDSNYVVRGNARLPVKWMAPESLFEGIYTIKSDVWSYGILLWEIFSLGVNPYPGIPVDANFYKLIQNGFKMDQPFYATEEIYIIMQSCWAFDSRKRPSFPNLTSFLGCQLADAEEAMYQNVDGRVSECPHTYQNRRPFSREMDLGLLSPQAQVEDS
Sequence of recombinant human PIM1 (P11309 whole entry): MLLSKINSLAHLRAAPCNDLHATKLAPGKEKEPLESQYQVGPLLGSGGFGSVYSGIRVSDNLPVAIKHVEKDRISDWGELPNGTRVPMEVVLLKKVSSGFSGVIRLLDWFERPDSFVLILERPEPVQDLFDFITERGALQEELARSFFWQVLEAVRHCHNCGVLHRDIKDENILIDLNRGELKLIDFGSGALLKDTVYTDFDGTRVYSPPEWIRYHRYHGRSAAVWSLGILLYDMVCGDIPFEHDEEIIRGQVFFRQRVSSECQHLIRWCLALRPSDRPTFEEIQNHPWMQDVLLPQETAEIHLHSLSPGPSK
Sequence of PARP-HSA enzyme (P09874 whole entry): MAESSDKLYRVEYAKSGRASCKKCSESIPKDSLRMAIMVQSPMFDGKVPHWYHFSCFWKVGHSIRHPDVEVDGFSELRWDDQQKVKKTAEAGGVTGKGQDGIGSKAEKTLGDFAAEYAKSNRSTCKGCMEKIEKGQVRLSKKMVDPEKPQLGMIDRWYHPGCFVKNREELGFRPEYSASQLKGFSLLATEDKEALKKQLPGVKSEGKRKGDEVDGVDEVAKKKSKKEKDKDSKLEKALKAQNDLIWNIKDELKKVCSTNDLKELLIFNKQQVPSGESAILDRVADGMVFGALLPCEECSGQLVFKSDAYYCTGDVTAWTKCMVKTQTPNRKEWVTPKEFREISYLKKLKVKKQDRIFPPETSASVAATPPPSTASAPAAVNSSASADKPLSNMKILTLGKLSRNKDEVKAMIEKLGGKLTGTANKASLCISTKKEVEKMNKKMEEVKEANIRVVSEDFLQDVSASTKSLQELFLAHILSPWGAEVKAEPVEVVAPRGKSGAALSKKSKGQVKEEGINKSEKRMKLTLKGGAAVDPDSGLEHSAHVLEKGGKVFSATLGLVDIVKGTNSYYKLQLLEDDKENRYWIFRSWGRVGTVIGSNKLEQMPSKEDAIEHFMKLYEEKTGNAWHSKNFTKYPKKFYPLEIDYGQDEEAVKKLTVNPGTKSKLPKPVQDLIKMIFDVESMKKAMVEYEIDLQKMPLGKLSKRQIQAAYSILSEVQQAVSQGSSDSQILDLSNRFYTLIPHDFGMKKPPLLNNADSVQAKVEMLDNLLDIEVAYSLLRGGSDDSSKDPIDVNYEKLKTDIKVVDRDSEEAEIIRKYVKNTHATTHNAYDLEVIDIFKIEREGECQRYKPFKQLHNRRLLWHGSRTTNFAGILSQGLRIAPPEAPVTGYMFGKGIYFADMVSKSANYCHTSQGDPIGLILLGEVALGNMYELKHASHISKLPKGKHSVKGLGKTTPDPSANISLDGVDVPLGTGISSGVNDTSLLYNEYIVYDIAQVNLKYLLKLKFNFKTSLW

The term IC50 denotes the concentration that gives 50% inhibition. Turning to `COc1ccc(Nc2nc3c(-c4nnc[nH]4)cccc3c3cnccc23)c(F)c1`, the IC50 in data set [1] was > 10000 nM; in data set [2] it was < 500 nM; in [3] it was < 500 nM; in [4], < 1000 nM; in data set [5], < 100 nM; in [6], < 100 nM. For the same compound, the concentration for half-maximal inhibition (IC50) in data set [7] came to 510 nM; in data set [8], 6860 nM.
Regarding `NCc1ccc(Nc2nc3c(-c4nnc[nH]4)cccc3c3cnccc23)cc1`, the IC50 in [3] is > 30000 nM; in data set [4] it was > 10000 nM; in [5], < 100 nM; in data set [6], < 100 nM; in data set [8], 9640 nM.
Take `CS(=O)(=O)c1ccc(Nc2nc3c(-c4nnc[nH]4)cccc3c3cnccc23)c(Cl)c1`: the IC50 was 1510 nM in data set [3]; 2660 nM in data set [4]; < 100 nM in [5]; < 100 nM in data set [6]; 2730 nM in [8].
With `c1cc(-c2nnc[nH]2)c2nc(NC3CCCC3)c3ccncc3c2c1`, the IC50 in [1] was > 10000 nM; in data set [3], > 30000 nM; in [4], 1930 nM; in data set [5], < 500 nM; in data set [6] it was < 100 nM; in data set [7], < 500 nM. Moreover, in data set [8], the IC50 was > 10000 nM.
For the compound `CCOC(=O)c1ccc(Nc2nc3c(-c4nnc[nH]4)cccc3c3cnccc23)c(Cl)c1`, the IC50 in [2] was > 10000 nM; in data set [3], > 30000 nM; in [4], > 10000 nM; in [5], < 100 nM; in data set [6], < 100 nM; in [8] it was > 10000 nM.
With `CN(C)CCOc1ccc(Nc2nc3c(-c4nnc[nH]4)cccc3c3cnccc23)cc1`, the IC50 in data set [1] is > 10000 nM; in data set [3], 1760 nM; in data set [4] it was < 100 nM; in data set [5], < 100 nM; in data set [6] it was < 100 nM; in data set [7], < 100 nM. In [8], this compound had an IC50 of 2560 nM.
In the case of `c1cc(-c2nnc[nH]2)c2nc(Nc3ccc(OCCN4CCOCC4)cc3)c3ccncc3c2c1`, the half-inhibitory concentration (IC50) is > 10000 nM in data set [1]; 268 nM in data set [2]; < 1000 nM in [3]; < 500 nM in data set [4]; < 100 nM in [5]; < 100 nM in data set [6]. The figures for the IC50 in data set [7] and in [8] were < 500 nM and 2040 nM, respectively.
A word on the half-life: it is the time in which the quantity being followed falls by half. `C#Cc1cccc(Nc2nc3cc(C(=O)O)ccc3c3cncnc23)c1` [drawing 1129]: in [9] (PO 24.5 mg/kg), the “F(0-24 h)” value is recorded as 26.5%, the “F(0-Inf)” value was 31.1%, the Kel is 0.0594 h⁻¹ and the half-life was 11.7 h. This compound also showed a half-life in data set [9] (IV 3.4 mg/kg) of 4.9 h.
Turning to `O=C(O)c1ccc2c3ccccc3c(=O)n(CCCO)c2c1`, the IC50 in [10] is 60 nM. Besides, the inhibition at 5 µM in [11] amounted to 29%.
For `Fc1cc(OCCN2CCCC2)ccc1Nc1nc2c(-c3nnc[nH]3)cccc2c2cnccc12`, the IC50 in [1] was > 10000 nM; in data set [4], < 500 nM; in data set [5], < 100 nM; in data set [6] it was < 100 nM; in data set [7], < 100 nM; in [8], < 1000 nM.
`Oc1ccc(Nc2nc3c(-c4nnc[nH]4)cccc3c3cnccc23)c(Cl)c1`: the IC50 in data set [2] is < 1000 nM; in data set [3], < 500 nM; in data set [4], < 500 nM; in [5] it was > 10000 nM; in data set [6], < 100 nM; in data set [8] it was 2380 nM.
Regarding `c1cc(-c2nnc[nH]2)c2nc(N3CCCC3)c3ccncc3c2c1`, the IC50 in [1] was > 10000 nM; in data set [2] it was < 100 nM; in data set [3] it was > 30000 nM; in data set [4], 3230 nM; in data set [5] it was < 1000 nM; in data set [6], < 500 nM. Besides, the values for the IC50 in data set [7] and in data set [8] were 2940 nM and > 10000 nM, respectively.
Consider `CN(C)CCOc1ccc(Nc2nc3c(-c4nnc[nH]4)cccc3c3cnccc23)c(F)c1`, for which the IC50 in [3] was 12000 nM; in data set [4] it was < 1000 nM; in data set [5] it was < 100 nM; in data set [8], 2180 nM.
Take `COc1ccc(NC(=O)c2ccc3c(c2)[nH]c(=O)c2ccsc23)c(OC)c1`: the “PARP % inhib @ 1 uM” value in [10] was 0%. The inhibition at 10 µM in data set [11] amounted to 3%.
For the compound `CNC(=O)c1cccc2c1nc(Nc1cccc(Cl)c1)c1ccncc12` [drawing 2307], the IC50 in data set [2] is < 500 nM; in data set [3] it was > 30000 nM; in data set [4] it was > 10000 nM; in data set [5] it was < 100 nM; in data set [6] it was < 100 nM; in data set [8], > 10000 nM.
Turning to `COc1ccccc1NC(=O)c1ccc2c(c1)[nH]c(=O)c1ccsc12`, in [10], the “PARP % inhib @ 1 uM” value came to 0%. The inhibition at 10 µM in data set [11] is -7%.
For `FC(F)(F)Oc1ccc(Nc2nc3c(-c4nnc[nH]4)cccc3c3cnccc23)c(Cl)c1`, the IC50 in data set [1] was > 10000 nM; in [2], > 10000 nM; in data set [3], > 30000 nM; in data set [4], > 10000 nM; in data set [5], < 100 nM; in data set [6], < 100 nM. Moreover, the values for the IC50 in data set [7] and in data set [8] were 4170 nM and > 10000 nM, respectively.
Turning to `c1cc(-c2nnc[nH]2)c2nc(NC3CCC3)c3ccncc3c2c1`, the IC50 is > 10000 nM in [1]; 7620 nM in [2]; < 500 nM in data set [3]; < 500 nM in [4]; < 100 nM in data set [5]; < 100 nM in [6]. Further, the IC50 in [7] was < 100 nM; in data set [8], > 10000 nM.
Regarding `CN1CCN(c2ccc(Nc3nc4c(-c5nnc[nH]5)cccc4c4cnccc34)c(Cl)c2)CC1`, the IC50 in data set [2] is 1500 nM; in data set [3], 3660 nM; in data set [4] it was < 1000 nM; in data set [5] it was < 100 nM; in data set [8], 2940 nM.
In the case of `O=C(O)c1ccc2c(c1)[nH]c(=O)c1ccccc12`, the IC50 in data set [10] was found to be 70 nM. The inhibition at 5 µM in data set [11] was determined as 28%.
In the same order, the values of `O=C(O)c1ccc2c(c1)nc(OCCCO)c1ccccc12` [drawing 559] are 400 nM and 38%.
For the compound `CN(C)CCOc1ccc(Nc2nc3c(-c4nnc[nH]4)cccc3c3cnccc23)c(Cl)c1`, the 50% inhibitory concentration (IC50) in [1] is 5410 nM; in data set [4] it was 6940 nM; in data set [5] it was < 100 nM; in data set [6] it was < 100 nM; in data set [7] it was < 100 nM; in data set [8] it was 1230 nM.
Take `Clc1cc(OCCN2CCOCC2)ccc1Nc1nc2c(-c3nnc[nH]3)cccc2c2cnccc12`: the IC50 was 6010 nM in data set [1]; > 30000 nM in [3]; > 10000 nM in data set [4]; < 100 nM in data set [5]; < 100 nM in data set [6]; < 100 nM in [7]. The IC50 in [8] is > 10000 nM.
Turning to `COC(=O)c1ccc2c(c1)nc(Cl)c1ccsc12` [drawing 695], the “PARP % inhib @ 1 uM” value in [10] is 18%. In [11], the inhibition at 10 µM was determined as 18%.
